ChEMBL document CHEMBL1926524, “Cyclolobatriene, a novel prenylated germacrene diterpene, from the soft coral Lobophytum pauciflorum” (Bioorg Med Chem, 2012)

Tested on: A-431
Test: Cytotoxicity against human A431 cells after 4 days by coulter counting
Assay type: functional, cell-based
Settings: A-431, 96 h

**Q.** With `C/C1=C\C[C@@H](/C(C)=C/C=C/C(C)(C)O)CC/C(C)=C/CC1` [EUNICOL] as the compound, how does the IC50 read?
**A.** 350 nM

**Q.** For `C=C[C@@]1(C)CC[C@H](/C(C)=C/C=C/C(C)(C)O)C[C@@H]1C(=C)C` [FUSCOL], which IC50 is on record?
**A.** 520 nM

**Q.** For `C=C[C@@]1(C)CC[C@H](C2=CC[C@H](C(C)(C)O)OC2)C[C@@H]1C(=C)C` [LOBATRIENE], which IC50 is on record?
**A.** 410 nM

**Q.** With `C/C1=C\C[C@@H](C2=CC[C@H](C(C)(C)O)OC2)CC/C(C)=C/CC1` [CYCLOLOBATRIENE] as the compound, how does the IC50 read?
**A.** 640 nM
